Measured values from article PMC6534241 (Drug Delivery, 2019).

How the values were obtained:
[1] = ref Hu et al., 2012; cited from earlier work
[2] = Solubility of drugs in oils/excipients; format: physicochemical; settings: shake flask, 25 °C, 48 h, HPLC, n = 3; Figure S1

CC(=O)O[C@@]12CO[C@@H]1C[C@H](O)[C@@]1(C)C(=O)[C@H](O)C3=C(C)[C@@H](OC(=O)[C@H](O)[C@@H](NC(=O)OC(C)(C)C)c4ccccc4)C[C@@](O)([C@@H](OC(=O)c4ccccc4)[C@H]21)C3(C)C [DTX, Docetaxel]
oral bioavailability of DTX [1]: ~5% | Solubility among the oils employed (ranking) [2]: highest solubility of 131.62 ± 17.68 in Capryol 90
